# Counter-ions that a name gives are not always drawn.
# Tests used:
# [1] = system: isolated rat heart (myocardium); assay: Ischemia-reperfusion sequence on isolated rat heart (contractile function and myocytic energetic metabolic response, 31P NMR); settings: 5×10^-6 M; for intracellular pH at the end of the ischemia: control falls from pH 7.2 to pH 6.0
# Procedure: Study of the compounds of the invention on the contractile function of the myocardium and on the myocytic energetic metabolic response in the course of an ischemia-reinfusion sequence (isolated rat heart).
# This study was carried out by means of the use of ^31 P NMR spectroscopy, this technique allowing the monitoring, on an isolated and infused heart, of the variation in the contents of phosphorylated compounds (ATP, phosphocreatine, inorganic phosphate) and in the intracellular pH. It allows continuous investigation of a number of variables linked with the energetic state of the myocardium and allows a comparative evaluation of the antiischemic properties of several products.
# The isolated rat heart is infused aortically at a constant pressure (100 cm of water) for 30 min. and is then subjected to a partial global ischemia (coronary output reduced to 1.3% of the initial output) for 24 min., and, lastly, the heart is reinfused at constant pressure for 30 min.
# Throughout the experiment, NMR spectra corresponding to 3-minute-long acquisitions are recorded. After statistical exploitation, they serve to determine the intracardial concentration of ATP, of phosphocreatine (PC) and of inorganic phosphate (Pi), as well as to evaluate the intracellular pH.
# This procedure is intended to assess the effect of the presence of the product before and during the ischemia. To this end, the product is administered in the infusion medium after normoxic infusion for 20 min; it remains present in the infusion solution throughout the remainder of the experiment. A concentration of 5×10^-6 M was chosen for this comparative study.
# This is intended to evaluate the effects of the products on the heart function. The heart is infused under the conditions defined above, and a catheter connected to a pressure sensor is introduced into the left ventrical (via the atrium) in order to monitor the pressure changes developed by the LV. The heart rate and the heart output are also monitored.
# This is carried out in a superconducting magnet of 5.9 T in order to record the ^31 P NMR spectra. This series of experiments is intended to evaluate the impact of the product on the energetic equilibrium of the myocardium both in normoxia, in ischemia and in reinfusion.
# [2] = system: blood/brain barrier model (monolayer of cerebral capillary endothelial cells cocultured with astrocytes); assay: Ability to cross the blood/brain barrier, endothelial cell/astrocyte coculture model; assay type: in vitro ADME; settings: concluded from the coefficient of permeability
# Procedure: (§1) In order to study the functions of cerebral capillaries "in vitro", we developed a coculture model which allows the "in vivo" situation to be recreated. The endothelial cells of capillaries and astrocytes are cultured on either side of a filter.
# (§2) The endothelial cells are cultured in the upper compartment on the filter and the astrocytes in the lower compartment on the bottom of the Petri dish.
# (§3) On the day of the experiment, a solution of Ringer-HEPES (150 mM NaCl; 5.2 mM KCl; 2.2 mM CaCl2; 0.2 mM MgCl2 ·6H2 O; 6 mM NaHCO3; 5 mM HEPES; 2.8 mM glucose) is placed in the lower compartment of a 6-well dish (3 ml per well). A filter of covered with a monolayer of endothelial cells is transferred into the first well of the 6-well dish. 2 ml of the Ringer-HEPES solution containing the test compound are placed in the upper compartment of the filter. […] The experiments are performed in triplicate with filters covered with a monolayer of endothelial cells from cerebral capillaries or of collagen alone as control. They are agitated at 37° C. throughout the experiment.
# (§4) In the graph clearance=f(t), measurement of the slope gives the value "PSt" where PS=permeability×surface area of the monolayer (in μl/min) for the filters covered with cerebral capillary endothelial cells. "PSf" is calculated in the same way for the control filters. The permeability for the monolayer of endothelial cells alone (PSe) is given by: [formula]
# (§5) The coefficient of endothelial permeability "Pe" is calculated by dividing "PSe" by the surface area of the monolayer of endothelial cells. "Pe" is expressed in "cm/min".
# [3] = as above; assay type: in vitro ADME; settings: in vitro coculture model, 37° C.; read-out: coefficient of permeability of the blood/brain barrier (Pe) (converted)
# Procedure: as §1, §2, §3, §4, §5
# [4] = system: mitochondrial ATP synthesis (isolated rat liver mitochondria); assay: Mitochondrial energy (ATP) production during experimental calcium overload (cyclosporin A), isolated rat liver mitochondria; assay type: biochemical; settings: 1×10^-6 M
# Procedure: Briefly, the mitochondria are extracted from rat livers. Mitochondrial respiration (1.5 mg of proteins placed in a reaction chamber) is brought about by the addition of sodium succinate, which is used as substrate (at 6×10^-4 M) and oxidative phosphorylation is triggered by the addition of ADP to the survival medium up to a final concentration of 1×10^-5 M. By recording the rates of oxygen consumption (in nmol/min./mg of mitochondrial protein) it is possible to calculate the characteristic parameters of the mitochondrial energy synthesis in the form of ATP.
penetration into the brain (in words) [2],Papp [3] [×10⁻⁶ cm/s],SMILES,"cytoprotective effect during an ischemia-reinfusion sequence of the myocardium, compared with trimetazidine [1]",effect on the intracellular acidosis induced by the ischemia [1],intracellular pH at the end of the ischemia [1],restoration of mitochondrial ATP synthesis [4] [%]
penetrate the brain very easily,> 16.7,"COc1ccc(CN2CCN(Cc3ccccc3)CC2)c(OC(=O)[C@@H]2C[C@H]2c2ccccc2)c1OC (relative stereo) [Example 2, N-(3,4-Dimethoxy-2-E-phenylcyclopropylcarbonyloxy)benzyl-N'-benzylpiperazine dihydrochloride]",,,,
penetrate the brain very easily,> 16.7,"CCN1CCN(Cc2ccc(OC)c(OC)c2OC(=O)[C@@H]2C[C@H]2c2ccccc2)CC1 [Example 17, N-(3,4-Dimethoxy-2-E-(R,R)-phenylcyclopropylcarbonyloxy)benzyl-N'-ethylpiperazine dihydrochloride]",,,,

# Further lines, the compound ahead of its results:
SMILES,penetration into the brain (in words) [2],Papp [3] [×10⁻⁶ cm/s],"cytoprotective effect during an ischemia-reinfusion sequence of the myocardium, compared with trimetazidine [1]",effect on the intracellular acidosis induced by the ischemia [1],intracellular pH at the end of the ischemia [1],restoration of mitochondrial ATP synthesis [4] [%]
"CCN1CCN(Cc2ccc(OC)c(OC)c2OC(=O)[C@@H]2C[C@H]2c2ccccc2)CC1 (relative stereo) [Example 1, N-(3,4-Dimethoxy-2-E-phenylcyclopropylcarbonyloxy)benzyl-N'-ethylpiperazinedihydrochloride]",penetrate the brain very easily,> 16.7,greatly increased,particularly pronounced,6.5,100
"CCN1CCN(Cc2ccc(OC)c(OC)c2OC(=O)[C@H]2C[C@@H]2c2ccccc2)CC1 [Example 19, N-(3,4-Dimethoxy-2-E-(S,S)-phenylcyclopropylcarbonyloxy)benzyl-N'-ethylpiperazine dihydrochloride]",penetrate the brain very easily,> 16.7,,,,
"COc1ccc(CN2CCNCC2)c(OC)c1OC [trimetazidine, 2,3,4-trimethoxybenzylpiperazine, reference compound]",penetrates poorly into the brain,7,,,6.35,

# — US5849745A, “N-benzylpiperazine compounds” (ADIR et Compagnie, priority 1996, dated 1998)
